From ChEMBL document CHEMBL4043204, “meso-Dihydroguaiaretic acid derivatives with antibacterial and antimycobacterial activity” (Bioorg Med Chem, 2017)
In brackets after ≈: the same amount, converted by molar mass.

Key:
Format in all cases: functional
[1] = test system: Jonesia denitrificans; assay: Antibacterial activity against Listeria denitrificans
[2] = test system: Mycobacterium tuberculosis; assay: Antimycobacterial activity against Mycobacterium tuberculosis H37Rv ATCC 27294 assessed as inhibition of mycobacterial growth incubated for 2 weeks by MABA method; conditions: Mycobacterium tuberculosis, H37Rv ATCC 27294, 336 h
[3] = test system: Staphylococcus aureus; assay: Antibacterial activity against methicillin-resistant Staphylococcus aureus
[4] = test system: Staphylococcus aureus; assay: Antibacterial activity against Staphylococcus aureus
[5] = test system: Bacillus subtilis; assay: Antibacterial activity against Bacillus subtilis

## COc1cc(C[C@@H](C)[C@@H](C)Cc2ccc(O)c(OC)c2)ccc1O [MESODIHYDROGUAIARETIC ACID]
[1]
  MIC: 1600 µM (≈ 529 µg/mL)
[2]
  MIC: 50 µg/mL (≈ 151 µM)
[3]
  MIC: 50 µg/mL (≈ 151 µM)
[4]
  MIC: 1600 µM (≈ 529 µg/mL)
[5]
  MIC: 1600 µM (≈ 529 µg/mL)
